From paper PMC5218480 (PLoS ONE, 2017)

Tested on: MV-4-11 cells
Assay: Gene expression microarray analysis (Affymetrix PrimeView) and GSEA
Assay type: cell-based, human
Set-up: RFU PODN (11730768_x_at) / Fold change /veh PODN (11730768_x_at) / RFU LINC00158 (11744669_a_at) / Fold change /veh LINC00158 (11744669_a_at) / RFU DUSP10 (11751237_a_at) / Fold change /veh DUSP10 (11751237_a_at) / RFU ID3 (11757404_x_at) / Fold change /veh ID3 (11757404_x_at) / RFU PLEKHG5 (11737974_s_at) / Fold change /veh PLEKHG5 (11737974_s_at) / RFU LRRC4B (11730491_at) / Fold change /veh LRRC4B (11730491_at) / RFU GIMAP4 (11747438_a_at) / Fold change /veh GIMAP4 (11747438_a_at) / RFU KRT8 (11758183_x_at) / Fold change /veh KRT8 (11758183_x_at) / RFU CNN1 (11734310_a_at) / Fold change /veh CNN1 (11734310_a_at) / RFU VPS37D (11726825_at) / Fold change /veh VPS37D (11726825_at) / RFU C10orf10 (11716522_x_at) / Fold change /veh C10orf10 (11716522_x_at) / RFU KIR2DL2 /// KIR2DL4 /// KIR2DL5A /// KIR2DL5B /// KIR2DS1 /// KIR2DS2 /// KIR2DS3 /// KIR2DS4 /// KIR3DL3 /// KIR3DL3 /// KIR3DS1 (11738374_at) / Fold change /veh KIR2DL2 /// KIR2DL4 /// KIR2DL5A /// KIR2DL5B /// KIR2DS1 /// KIR2DS2 /// KIR2DS3 /// KIR2DS4 /// KIR3DL3 /// KIR3DL3 /// KIR3DS1 (11738374_at) / RFU C1QL1 (11718748_at) / Fold change /veh C1QL1 (11718748_at) / RFU TMPRSS4 (11747572_a_at) / Fold change /veh TMPRSS4 (11747572_a_at) / RFU HAMP (11756126_x_at) / Fold change /veh HAMP (11756126_x_at) / RFU RNFT2 (11725882_a_at) / Fold change /veh RNFT2 (11725882_a_at) / RFU NR4A2 (11747474_a_at) / Fold change /veh NR4A2 (11747474_a_at) / RFU ABCC12 (11746883_a_at) / Fold change /veh ABCC12 (11746883_a_at) / RFU TMEM136 (11760407_x_at) / Fold change /veh TMEM136 (11760407_x_at) / RFU CLDN22 /// WWC2 (11732394_at) / Fold change /veh CLDN22 /// WWC2 (11732394_at) / RFU HLA-DPB1 (11760878_x_at) / Fold change /veh HLA-DPB1 (11760878_x_at) / RFU SPINT1 (11716480_a_at) / Fold change /veh SPINT1 (11716480_a_at) / RFU GAP43 (11754022_s_at) / Fold change /veh GAP43 (11754022_s_at) / RFU A4GNT (11735810_at) / Fold change /veh A4GNT (11735810_at) / RFU PRB3 (11715151_x_at) / Fold change /veh PRB3 (11715151_x_at) / RFU TUBB4B (11761932_at) / Fold change /veh TUBB4B (11761932_at) / RFU CAPN14 (11732068_a_at) / Fold change /veh CAPN14 (11732068_a_at) / RFU TMCC2 (11721928_a_at) / Fold change /veh TMCC2 (11721928_a_at) / RFU IRGQ (11745062_a_at) / Fold change /veh IRGQ (11745062_a_at) / RFU FAM174B (11720279_a_at) / Fold change /veh FAM174B (11720279_a_at) / RFU TMPRSS4 (11748680_a_at) / Fold change /veh TMPRSS4 (11748680_a_at) / RFU FAM212B (11763350_a_at) / Fold change /veh FAM212B (11763350_a_at) / RFU PLEKHG5 (11743358_a_at) / Fold change /veh PLEKHG5 (11743358_a_at) / RFU ZSCAN30 (11745921_a_at) / Fold change /veh ZSCAN30 (11745921_a_at) / RFU CMKLR1 (11741424_a_at) / Fold change /veh CMKLR1 (11741424_a_at) / RFU LOC101060620 /// MAPK8IP1 (11723275_at) / Fold change /veh LOC101060620 /// MAPK8IP1 (11723275_at) / RFU SPTSSB (11747773_x_at) / Fold change /veh SPTSSB (11747773_x_at) / RFU PRSS12 (11739890_at) / Fold change /veh PRSS12 (11739890_at) / RFU BIN1 (11741810_x_at) / Fold change /veh BIN1 (11741810_x_at) / RFU WNT11 (11732464_a_at) / Fold change /veh WNT11 (11732464_a_at) / RFU C10orf10 (11716521_a_at) / Fold change /veh C10orf10 (11716521_a_at) / RFU C5orf56 (11738089_at) / Fold change /veh C5orf56 (11738089_at) / RFU CYB561 (11721691_x_at) / Fold change /veh CYB561 (11721691_x_at) / RFU ANKRD19P (11752326_a_at) / Fold change /veh ANKRD19P (11752326_a_at) / RFU OR2T12 /// OR2T33 /// OR2T8 (11738714_s_at) / Fold change /veh OR2T12 /// OR2T33 /// OR2T8 (11738714_s_at) / RFU VCAN (11748164_a_at) / Fold change /veh VCAN (11748164_a_at) / RFU JSRP1 (11732532_at) / Fold change /veh JSRP1 (11732532_at) / RFU KRTAP10-11 (11738290_x_at) / Fold change /veh KRTAP10-11 (11738290_x_at) / RFU MYO3A (11730013_a_at) / Fold change /veh MYO3A (11730013_a_at) / RFU EBF3 (11725865_a_at) / Fold change /veh EBF3 (11725865_a_at) / RFU CAMK2N1 (11719241_x_at) / Fold change /veh CAMK2N1 (11719241_x_at) / RFU C5orf56 (11738088_a_at) / Fold change /veh C5orf56 (11738088_a_at) / RFU OLFML3 (11715873_a_at) / Fold change /veh OLFML3 (11715873_a_at) / RFU LOC100653217 /// NTM (11731650_a_at) / Fold change /veh LOC100653217 /// NTM (11731650_a_at) / RFU MAPK11 (11762145_a_at) / Fold change /veh MAPK11 (11762145_a_at) / RFU FIZ1 (11724087_x_at) / Fold change /veh FIZ1 (11724087_x_at) / RFU OASL (11726364_x_at) / Fold change /veh OASL (11726364_x_at) / RFU SOX15 (11748057_x_at) / Fold change /veh SOX15 (11748057_x_at) / RFU CD79A (11719716_a_at) / Fold change /veh CD79A (11719716_a_at) / RFU HIST1H1D (11736915_at) / Fold change /veh HIST1H1D (11736915_at) / RFU CASKIN2 (11723855_a_at) / Fold change /veh CASKIN2 (11723855_a_at) / RFU LOC730098 (11760151_x_at) / Fold change /veh LOC730098 (11760151_x_at) / RFU OR4N2 (11742367_at) / Fold change /veh OR4N2 (11742367_at) / RFU PRRT2 (11749266_a_at) / Fold change /veh PRRT2 (11749266_a_at) / RFU SNX32 (11753110_a_at) / Fold change /veh SNX32 (11753110_a_at) / RFU CDHR5 (11726645_a_at) / Fold change /veh CDHR5 (11726645_a_at) / RFU RCAN1 (11760418_a_at) / Fold change /veh RCAN1 (11760418_a_at) / RFU FAM167A (11723789_a_at) / Fold change /veh FAM167A (11723789_a_at) / RFU FAM26E (11764081_at) / Fold change /veh FAM26E (11764081_at) / RFU ISYNA1 (11749810_s_at) / Fold change /veh ISYNA1 (11749810_s_at) / RFU ACY1 (11761880_at) / Fold change /veh ACY1 (11761880_at) / RFU 11764098_at / Fold change /veh 11764098_at / RFU SAMD14 (11745864_x_at) / Fold change /veh SAMD14 (11745864_x_at) / RFU NPB (11741838_a_at) / Fold change /veh NPB (11741838_a_at) / RFU TMPRSS6 (11731388_a_at) / Fold change /veh TMPRSS6 (11731388_a_at) / RFU KRTAP10-2 (11738614_at) / Fold change /veh KRTAP10-2 (11738614_at) / RFU ARHGAP8 /// PRR5-ARHGAP8 (11727945_x_at) / Fold change /veh ARHGAP8 /// PRR5-ARHGAP8 (11727945_x_at) / RFU KRTAP5-7 /// NADSYN1 (11734609_at) / Fold change /veh KRTAP5-7 /// NADSYN1 (11734609_at) / RFU RASL12 (11751679_a_at) / Fold change /veh RASL12 (11751679_a_at) / RFU CDKN2B (11736163_a_at) / Fold change /veh CDKN2B (11736163_a_at) / RFU PRF1 (11729649_at) / Fold change /veh PRF1 (11729649_at) / RFU, ZNF638 /// ZNF638-IT1 / Fold change vs veh, ZNF638 /// ZNF638-IT1 / RFU, PANK3 / Fold change vs veh, PANK3 / RFU, SH3YL1 / Fold change vs veh, SH3YL1 / RFU, ZEB2 / Fold change vs veh, ZEB2 / RFU, NRIP1 / Fold change vs veh, NRIP1 / RFU, PTTG1IP / Fold change vs veh, PTTG1IP / RFU, CAPN2 / Fold change vs veh, CAPN2 / RFU, MED14 / Fold change vs veh, MED14 / RFU, SNORA58 / Fold change vs veh, SNORA58 / RFU, C1orf63 / Fold change vs veh, C1orf63 / RFU, LRRFIP1 / Fold change vs veh, LRRFIP1 / RFU, NDUFAF7 / Fold change vs veh, NDUFAF7 / RFU, SLC12A2 / Fold change vs veh, SLC12A2 / RFU, IBTK / Fold change vs veh, IBTK / RFU, ESF1 / Fold change vs veh, ESF1 / Fold change vs veh, TMEM50B / RFU, TAOK1 / Fold change vs veh, TAOK1 / RFU, ACBD3 / Fold change vs veh, ACBD3 / RFU, TMA16 / Fold change vs veh, TMA16 / RFU, RWDD3 / Fold change vs veh, RWDD3 / RFU, BCAT1 / Fold change vs veh, BCAT1 / RFU, EDEM3 / Fold change vs veh, EDEM3 / RFU, TMEM33 / Fold change vs veh, TMEM33 / RFU, WDR75 / Fold change vs veh, WDR75 / RFU, AHCTF1 / Fold change vs veh, AHCTF1 / RFU, TFRC / Fold change vs veh, TFRC / RFU, ZDHHC17 / Fold change vs veh, ZDHHC17 / RFU, NOM1 / Fold change vs veh, NOM1 / RFU, ARL8B / Fold change vs veh, ARL8B / RFU, ZBTB11 / Fold change vs veh, ZBTB11 / RFU, TAMM41 / Fold change vs veh, TAMM41 / RFU, KIAA1704 /// LOC100996395 / Fold change vs veh, KIAA1704 /// LOC100996395 / RFU, ING1 / Fold change vs veh, ING1 / RFU, TRMT61B / Fold change vs veh, TRMT61B / RFU, FUBP3 / Fold change vs veh, FUBP3 / RFU, TP53 / Fold change vs veh, TP53 / RFU, TNKS2 / Fold change vs veh, TNKS2 / RFU, ZFP14 / Fold change vs veh, ZFP14 / RFU, ACTR2 / Fold change vs veh, ACTR2 / RFU, PPP3R1 / Fold change vs veh, PPP3R1 / RFU, PIK3R1 / Fold change vs veh, PIK3R1 / RFU, HNRNPA1 / Fold change vs veh, HNRNPA1 / RFU, RNF170 / Fold change vs veh, RNF170 / RFU, ZNF28 / Fold change vs veh, ZNF28 / RFU, RNGTT / Fold change vs veh, RNGTT / RFU, OGT / Fold change vs veh, OGT / RFU, BRD1 / Fold change vs veh, BRD1 / RFU, MARS / Fold change vs veh, MARS / RFU, ZNF655 / Fold change vs veh, ZNF655 / RFU, FAHD1 / Fold change vs veh, FAHD1 / RFU, BDP1 / Fold change vs veh, BDP1 / RFU, LRRCC1 / Fold change vs veh, LRRCC1 / RFU, ARID1A / Fold change vs veh, ARID1A / RFU, ZNF146 / Fold change vs veh, ZNF146 / RFU, ZNF330 / Fold change vs veh, ZNF330 / RFU, GPN3 / Fold change vs veh, GPN3 / RFU, C9orf123 / Fold change vs veh, C9orf123 / RFU, N4BP2L2 / Fold change vs veh, N4BP2L2 / RFU, ARFIP1 / Fold change vs veh, ARFIP1 / RFU, FAM179B / Fold change vs veh, FAM179B / RFU, BCL10 / Fold change vs veh, BCL10 / RFU, UHRF1BP1L / Fold change vs veh, UHRF1BP1L / RFU, BET1 / Fold change vs veh, BET1 / RFU, CNOT2 / Fold change vs veh, CNOT2 / RFU, ZNF268 / Fold change vs veh, ZNF268 / Fold change vs veh, ZNF507 / RFU, DGCR2 / Fold change vs veh, DGCR2 / RFU, WDSUB1 / Fold change vs veh, WDSUB1 / Fold change vs veh, HSP90B1 /// MIR3652 / RFU, ADSS / Fold change vs veh, ADSS / RFU, GK / Fold change vs veh, GK / RFU, ZNF148 / Fold change vs veh, ZNF148 / RFU, TAF9 / Fold change vs veh, TAF9 / RFU, SLC1A5 / Fold change vs veh, SLC1A5 / RFU, SLMO2 / Fold change vs veh, SLMO2 / RFU, ABCC4 / Fold change vs veh, ABCC4 / RFU, LOC101060439 /// RAP1B / Fold change vs veh, LOC101060439 /// RAP1B / RFU, RFX7 / Fold change vs veh, RFX7 / RFU, GTPBP10 / Fold change vs veh, GTPBP10 / RFU, CNEP1R1 / Fold change vs veh, CNEP1R1 / RFU, BIVM-ERCC5 /// ERCC5 / Fold change vs veh, BIVM-ERCC5 /// ERCC5 / RFU, ILF3 / Fold change vs veh, ILF3 / RFU 11762660_at / Fold change /veh 11762660_at / RFU VCAN (11757783_s_at) / Fold change /veh VCAN (11757783_s_at) / RFU DDX43 (11728927_at) / Fold change /veh DDX43 (11728927_at) / RFU KRT8 (11758188_x_at) / Fold change /veh KRT8 (11758188_x_at) / RFU NKD1 (11759106_at) / Fold change /veh NKD1 (11759106_at) / RFU SRD5A1 (11742802_a_at) / Fold change /veh SRD5A1 (11742802_a_at) / RFU TPSAB1 /// TPSB2 (11721975_s_at) / Fold change /veh TPSAB1 /// TPSB2 (11721975_s_at) / RFU GSTM3 (11746129_a_at) / Fold change /veh GSTM3 (11746129_a_at) / RFU IL23R (11737362_x_at) / Fold change /veh IL23R (11737362_x_at) / RFU TMEM51 (11727254_a_at) / Fold change /veh TMEM51 (11727254_a_at) / RFU PIWIL2 (11732686_x_at) / Fold change /veh PIWIL2 (11732686_x_at) / RFU ORM1 (11744905_x_at) / Fold change /veh ORM1 (11744905_x_at) / RFU CCDC152 (11743942_at) / Fold change /veh CCDC152 (11743942_at) / RFU ECM1 (11717891_a_at) / Fold change /veh ECM1 (11717891_a_at) / RFU IL23R (11748794_a_at) / Fold change /veh IL23R (11748794_a_at) / RFU TNFAIP8L3 (11732012_x_at) / Fold change /veh TNFAIP8L3 (11732012_x_at) / RFU MBOAT4 (11741988_at) / Fold change /veh MBOAT4 (11741988_at) / RFU 11764193_at / Fold change /veh 11764193_at / RFU TMEM53 (11763286_at) / Fold change /veh TMEM53 (11763286_at) / RFU MAGEB2 (11727129_at) / Fold change /veh MAGEB2 (11727129_at) / RFU TMEM200A (11744735_a_at) / Fold change /veh TMEM200A (11744735_a_at) / RFU CCDC152 (11751479_a_at) / Fold change /veh CCDC152 (11751479_a_at) / RFU FAM211A (11726209_a_at) / Fold change /veh FAM211A (11726209_a_at) / RFU RGS16 (11746705_a_at) / Fold change /veh RGS16 (11746705_a_at) / RFU VCAN (11755009_s_at) / Fold change /veh VCAN (11755009_s_at) / RFU RHOB (11743442_s_at) / Fold change /veh RHOB (11743442_s_at) / RFU RGS16 (11720943_a_at) / Fold change /veh RGS16 (11720943_a_at) / RFU RGS16 (11720944_at) / Fold change /veh RGS16 (11720944_at) / RFU, VPS4B / Fold change vs veh, VPS4B / RFU, CREB1 / Fold change vs veh, CREB1 / RFU, DNAJC13 / Fold change vs veh, DNAJC13 / RFU, GNAQ / Fold change vs veh, GNAQ / RFU, CDK5R1 / Fold change vs veh, CDK5R1 / RFU, ZRANB3 / Fold change vs veh, ZRANB3 / RFU, CUL4A / Fold change vs veh, CUL4A / RFU, CCNY / Fold change vs veh, CCNY / RFU, UFL1 / Fold change vs veh, UFL1 / RFU, COG3 / Fold change vs veh, COG3 / RFU, DIAPH2 / Fold change vs veh, DIAPH2 / RFU, SKA2 / Fold change vs veh, SKA2 / RFU, AFF3 / Fold change vs veh, AFF3 / RFU, LMF1 / Fold change vs veh, LMF1 / RFU, IPO11 / Fold change vs veh, IPO11 / RFU, DFFB / Fold change vs veh, DFFB / RFU, FOXP1 / Fold change vs veh, FOXP1 / RFU, CARD8 / Fold change vs veh, CARD8 / RFU, STRN3 / Fold change vs veh, STRN3 / RFU, ADK / Fold change vs veh, ADK / RFU, RASSF2 / Fold change vs veh, RASSF2 / RFU, WIPF1 / Fold change vs veh, WIPF1 / RFU, LARP1B / Fold change vs veh, LARP1B / RFU, RASA1 / Fold change vs veh, RASA1 / RFU, RB1 / Fold change vs veh, RB1 / RFU, PPFIA1 / Fold change vs veh, PPFIA1 / RFU, MAT2A / Fold change vs veh, MAT2A / RFU, CCT5 / Fold change vs veh, CCT5 / RFU, WDR92 / Fold change vs veh, WDR92 / RFU, CUX1 / Fold change vs veh, CUX1 / RFU, TTC7A / Fold change vs veh, TTC7A / RFU, TMEM135 / Fold change vs veh, TMEM135 / RFU, DEPTOR / Fold change vs veh, DEPTOR / RFU, CPM / Fold change vs veh, CPM / RFU, DNAJB6 / Fold change vs veh, DNAJB6 / RFU, CACNA2D3 / Fold change vs veh, CACNA2D3 / RFU, DTX4 / Fold change vs veh, DTX4 / RFU, TFCP2 / Fold change vs veh, TFCP2 / RFU, GMCL1 /// GMCL1P1 / Fold change vs veh, GMCL1 /// GMCL1P1 / RFU, AEBP2 / Fold change vs veh, AEBP2 / RFU, SNHG1 /// SNORD22 /// SNORD25 /// SNORD26 /// SNORD27 /// SNORD28 /// SNORD29 /// SNORD31 / Fold change vs veh, SNHG1 /// SNORD22 /// SNORD25 /// SNORD26 /// SNORD27 /// SNORD28 /// SNORD29 /// SNORD31 / Fold change (Aza/veh), C12orf56 (ProbeSet 11735607_a_at) / Fold change (ACY-1035/veh), C12orf56 (ProbeSet 11735607_a_at) / Fold change (Aza/veh), FGFR1OP (ProbeSet 11751329_s_at) / Fold change (ACY-1035/veh), FGFR1OP (ProbeSet 11751329_s_at) / Fold change (Aza/veh), VPS36 (ProbeSet 11739960_a_at) / Fold change (ACY-1035/veh), VPS36 (ProbeSet 11739960_a_at) / RFU SYPL1 (11715823_x_at) / Fold change /veh SYPL1 (11715823_x_at) / RFU IGFBP7 (11715501_s_at) / Fold change /veh IGFBP7 (11715501_s_at) / RFU REEP3 (11722064_at) / Fold change /veh REEP3 (11722064_at) / RFU IGLL1 (11728026_x_at) / Fold change /veh IGLL1 (11728026_x_at): dose or concentration left out as unconfirmed
Details: ProbeSet 11741070_a_at; LIST B

Nc1ncn([C@@H]2O[C@H](CO)[C@@H](O)[C@H]2O)c(=O)n1 [azacitidine]
Fold change vs veh, ZNF146: 0.88
